Results from US5486528A, “Basic ethers and process for the preparation thereof” (Egis Gyogyszergyar Rt., priority 1993, dated 1996).

Legend:
[1] = test system: Male Wistar rats; assay: Vogel test (drinking conflict test), anxiolytic effect; assay type: in vivo, rat (Wistar); conditions: for minimal effective dose: ip, 0.5 h, rat, intraperitoneally, half an hour before testing, read-out: MED (minimum effective dose), Vogel test; for anxiolytic activity (in words): Vogel test, compared with Meprobamate or within the group
Method: 1.1. Vogel test (drinking conflict test)
The anxiolytic effect was tested by using the method of Vogel et al. Male Wistar rats of 160 to 180 g body weight were kept free of food and drinking water for 24 and 48 hours, respectively. Test and carrier substances were administered intraperitoneally half an hour before testing. Animals within the experimental chamber were provided with drinking water through an inserted tube. After the animals' each twenty lapping for water the device emitted a 2 mA intensity electric shock through the drinking tube. During 5 minutes the shocks tolerated by the animals in order to quench their thirst were counted. The effect of treatment was expressed as the % increase of the tolerated shocks. The minimum effective dose (MED) was determined for each test compound [Volge, J. R., Beer, B., Clody, D. E.: Psychopharmacologia (Berl.) 21, 1 (1971)].

[2] = Acute toxicity on mice (Litchfield and Wilcoxon); conditions: mouse, in vivo, po
Method: The test was carried out according to the method of Litchfield and Wilcoxon [Litchfield, J. T. and Wilcoxon, F. W.: J. Pharmacol. Exp. Ther., 96, 99 (1949)] by using white mice belonging to the CFLP strain and weighing 10 to 22 g, 10 animals per dose. The test compounds were administered orally in a volume of 20 cm^3 /kg.

[3] = target: T1, H^+ /K^+ -ATP-ase (Sus scrofa, UniProt P19156); assay: H+/K+-ATP-ase inhibition on partially purified pig's microsome specimen; assay type: biochemical
T1 construct: on partially purified pig's microsome specimen; from tissue; host or cells: pig stomach, partially purified microsomes
Method: 1. H^+ /K^+ -ATP-ase inhibition on pig's stomach
The test was carried out according to the method of Rabon and Sachs [E. C. Rabon et al.: Preparation of gastric H^+ K^+ -ATP-ase, Methods in Enzymology, 157, 649-651 (1988)]. The activity of the prepared enzyme was measured both in the presence as in the absence of K^+ ions. The difference in the libaration of phosphorus representing the activity of the enzyme was measured.

[4] = test system: Male Wistar rats; assay: Conditioned avoidance response inhibition, antipsychotic effect; assay type: in vivo, rat (Wistar); conditions: rat, 30 mg/kg p.o.; ++ = p < 0.05
Method: Conditioned avoidance response inhibition
The antipsychotic (neuroleptic) effect was measured by the inhibition of the learned conditioned avoidance reflex. The male Wistar rats, used for the study, were of 120-150 g body weight at the commencement of learning. A shuttle box was used as experimental device; it consists of two parts, 24×24.5×23 cm each, separated by a wall with a 6×9 cm gate. In response to a sutiable warning stimulus, in order to avoid the punishing (unconditioned) stimulus, animals within the box passed through the gate from one part to the other. The warning, i.e. conditioned stimulus (CS), a white light (1 Hz) blinking for 15 seconds, was applied at the place of the actual animal existence. The unconditioned stimulus (US), in form of 0.6 mA intensity electric shock, was randomly applied to the paw during the last 5 seconds of the conditioned stimulus. The animal's movement during the CS and US from one part of the box to the other, was defined as avoidance and escape responses, respectively. Both responses ceased the actual stimulus and stopped the trial. The time elapsed until the next trial (intertrial interval, ITI) was 15 seconds. While one experiment was carried out daily, an experiment consisted of 80 trials. Learning efficiency was expressed as percentage of the successful to the total avoidances. Effect of the neuroleptic drugs was examined in animals with stabilized conditioned reflexes and with at least 75% learning efficiency. Dosing was carried out once a week, one hour before the measurement in the shuttle box. To calculate the neuroleptic effect (50% inhibiting dose, ID50) , results obtained after the treatment were compared to those obtained on the previous day (controls).

[5] = test system: erosion of the stomach wall; assay: Cytoprotective effect, ethanol erosion (Robert); assay type: in vivo; conditions: rat
Method: 3. The cytoprotective effect was determined according to the method of Robert [Robert, A.: Cytoprotection by prostaglandins. […] Rats weighing 200 to 250 g were used as test animals. 1 cm^3 of abs. ethanol was introduced to the stomach to produce an erosion of the stomach wall. The length and frequency of the lesions (erosion index and frequency) were measured and the percentage inhibition of lesion formation compared with vehicle-treated animals was calculated.

[6] = test system: mice; assay: Effect on the spontaneous motor activity (Borsy), sedative effect; assay type: in vivo, mouse; conditions: Mus musculus, po, 0.5 h; mice, orally, 30 minutes; read-out: ID50, spontaneous motor activity
Method: 2.1. Effect on the spontaneous motor activity
The test was carried out according to the method of Borsy et al. Groups consisting of 3 mice each were treated orally with different doses of the compounds to be tested. Then the test animals were placed into a 10-channel Dews system equipment. In this equipment the number of interruptions of infrared beam within 30 minutes was counted. […] Int. Pharmacodyn. 124, 1 (1960)].

[7] = test system: gastric-acid secretion; assay: Gastric-acid-secretion test (Shay); assay type: in vivo, rat; conditions: po; rat, p.o., 4 hours after ligature; read-out: Acid-secretion inhibition, ED50
Method: 2. […] The liberated gastric-acid content was determined by titration 4 hours after the ligature of the duodenum.

[8] = test system: rat's parietal cell; assay: 14C-aminopyrine accumulation by parietal cells; assay type: cell-based, rat (Wistar); conditions: stimulated rat parietal cells; read-out: ED50, inhibition of aminopyrine accumulation
Method: 4. Measurement of ^14 C-aminopyrine accumulation by parietal cells
Gastric mucosal cells were prepared from rat stomach. Wistar rats (130-160 g) were killed by decapitation, the stomachs were rapidly excised and their contents were washed out with saline. The stomachs were then everted and filled with 2.5 mg/ml of pronase containing buffer. These sacs were incubated for 60 minutes at 37° C. in carbogen gassed medium. This incubation was followed by gentle stirring at room temperature for 45 minutes by a magnetic stirrer in order to disperse the cells from the mucosa of the everted stomachs digested only from the serosal side. The viability of the cells was determined by trypan-blue exclusion test. The percentage of the parietal cells was determined on the basis of their morphological characteristics.
Acid production of the cells prepared in this way could be induced by cyclic AMP, histamine (in the presence of 3-isobutyl-1-methylxanthine) or carbachol. The acid production was assessed by measuring the accumulation of ^14 C-aminopyrine. The undissociated weak base can penetrate into the acid-containing compartments of the cells. […] Thus, the distribution of ^14 C-aminopyrine between the extracellular and intracellular spaces is an indirect quantitative index for the cellular acid production [W. Schepp, J. Schmidtler, C. […]

[9] = Acute toxicity on mice (Litchfield and Wilcoxon); conditions: mouse, in vivo, ip
[10] = test system: Male rats (Sprague Dawley); assay: Elevated plus maze test on rat, anxiolytic effect; assay type: in vivo, rat (Sprague Dawley); conditions: po, 1 h, p.o., pretreatment 60 minutes, read-out: MED (minimum effective dose), elevated plus maze
Method: 1.2. Elevated plus maze test on rat
The test was carried out with the aid of a wooden plus-shaped maze elevated to a height of 50 cm. Two arms--opposite to one another--were enclosed up to a height of 40 cm along their longer sides and at the end. The other two arms were without walls (open arms). The central 15×15 cm part was open. Male rats belonging to the Sprague Dawley strain and weighing 220 to 260 g were used as test animals. After pretreatment lasting 60 minutes the animals were placed into the central part of the maze. During the 5 minutes observation period the following parameters were recorded: […]
time spent on the open arms time spent on the closed arms number of open arm entries number of closed arm entries
The drug effect was expressed as percent increase of the time spent on the open arms and number of open arm entries. The minimum effective dose which caused a significant increase of the time spent on the open arms was calculated for every substance [Pelow, S., Chopin, P., File, S. E., Briley, M.: J. Neurosci. Methods 14, 149-167 (1985)].

T1 sequence (P19156 2-1034 limits assumed): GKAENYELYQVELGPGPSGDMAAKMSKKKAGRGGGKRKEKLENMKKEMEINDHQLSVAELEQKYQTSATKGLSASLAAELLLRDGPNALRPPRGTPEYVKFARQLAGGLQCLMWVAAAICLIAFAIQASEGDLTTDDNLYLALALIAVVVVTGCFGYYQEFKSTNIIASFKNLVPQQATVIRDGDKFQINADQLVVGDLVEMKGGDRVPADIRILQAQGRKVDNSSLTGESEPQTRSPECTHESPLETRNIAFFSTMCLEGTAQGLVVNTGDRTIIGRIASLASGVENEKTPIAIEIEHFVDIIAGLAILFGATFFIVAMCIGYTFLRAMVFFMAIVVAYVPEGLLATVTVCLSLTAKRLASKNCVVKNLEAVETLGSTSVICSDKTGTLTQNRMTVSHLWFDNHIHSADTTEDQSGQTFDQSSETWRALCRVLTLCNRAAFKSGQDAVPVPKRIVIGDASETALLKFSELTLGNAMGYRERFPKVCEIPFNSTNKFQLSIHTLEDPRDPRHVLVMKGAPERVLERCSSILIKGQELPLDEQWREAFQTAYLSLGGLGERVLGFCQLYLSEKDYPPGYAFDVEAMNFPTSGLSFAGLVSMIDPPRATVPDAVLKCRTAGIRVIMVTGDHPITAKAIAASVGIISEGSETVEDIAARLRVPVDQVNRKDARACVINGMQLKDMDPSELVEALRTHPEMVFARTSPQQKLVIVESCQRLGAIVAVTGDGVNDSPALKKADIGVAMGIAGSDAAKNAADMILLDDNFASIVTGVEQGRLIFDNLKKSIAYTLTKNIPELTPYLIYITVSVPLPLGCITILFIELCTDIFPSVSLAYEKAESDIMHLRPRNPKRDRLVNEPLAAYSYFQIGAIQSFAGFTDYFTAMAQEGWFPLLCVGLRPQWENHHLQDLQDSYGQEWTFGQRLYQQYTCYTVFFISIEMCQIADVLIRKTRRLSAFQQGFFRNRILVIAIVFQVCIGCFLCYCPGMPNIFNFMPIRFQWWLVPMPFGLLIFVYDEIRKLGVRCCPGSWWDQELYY
T1 sequence (P18434 whole entry partner): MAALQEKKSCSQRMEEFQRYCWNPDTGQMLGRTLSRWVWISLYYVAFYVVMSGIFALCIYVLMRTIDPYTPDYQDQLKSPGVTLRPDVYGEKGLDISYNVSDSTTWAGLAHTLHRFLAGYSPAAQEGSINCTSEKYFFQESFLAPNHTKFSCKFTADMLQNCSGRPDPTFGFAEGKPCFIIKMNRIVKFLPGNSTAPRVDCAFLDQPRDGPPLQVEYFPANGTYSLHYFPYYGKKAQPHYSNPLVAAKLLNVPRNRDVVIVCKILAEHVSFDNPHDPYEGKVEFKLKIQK

Compound	minimal effective dose [1] [mg/kg]	LD50 at 336 h [2] [mg/kg]	IC50 [3] [µM]	Inhibition of the conditioned reflex (%) [4] [%]	ED50 ([5]; po, 1 cm^3 abs. ethanol) [mg/kg]	Ratio of acid-secretion inhibition and erosion inhibition ([5]; ratio of ED50 values, p.o.)	ED50 [6] [mg/kg]	ED50 [7] [mg/kg]	IC50 [8] [µM]	LD50 at 336 h [9] [mg/kg]	anxiolytic activity (in words) [1]	minimal effective dose [10] [mg/kg]
CC(C)CCC(/C=C/c1ccc(Cl)cc1)=N\OCCCN1CCCCC1 [Example 9, 1-(4-Chlorophenyl)-6-methyl-3-(E)-[3-(N-piperidinyl)-propoxyimino]-1-(E)-heptene]	> 30	> 1000	12	16	5.9	18.1	> 100	107	0.05	160	–	–
CC(C)CC(/C=C/c1ccccc1)=N\OCCN1CCCCC1 [Example 10, 1-Phenyl-5-methyl-3-(E)-[2-(N-piperidinyl)-ethoxyimino]-1-(E)-hexene]	0.1	–	–	13	–	–	> 100	–	–	–	the most active members in the structural group	10
CCCC(/C=C/c1ccccc1)=N\OCCCN(C)C [Example 21, 1-Phenyl-3-(E)-[3-(dimethylamino)-propoxyimino]-1-(E)-hexene]	0.03	–	–	7	–	–	> 100	–	–	–	the most active members in the structural group	1
CCCC(C)(COC(N)=O)COC(N)=O [Meprobamate, reference compound]	25	–	–	–	–	–	–	–	–	–	–	> 10
